For series [1] the following is noted: cited from earlier work.
A short description of series [2]: rat pharmacokinetics, intravenous. Conditions: for AUC: male, Sprague-Dawley, rat, whole blood, iv, 0.5 mg/kg. Format: in vivo, male Sprague-Dawley rats.
The nature of series [3]: rat liver microsomal incubations, intrinsic clearance. Conditions: Sprague-Dawley, microsomes, pH 7.4. Format: in vitro ADME.
The next series deals with T1, hURAT1 (SLC22A12) (Homo sapiens, UniProt Q96S37).
T1 sequence (Q96S37 1-553): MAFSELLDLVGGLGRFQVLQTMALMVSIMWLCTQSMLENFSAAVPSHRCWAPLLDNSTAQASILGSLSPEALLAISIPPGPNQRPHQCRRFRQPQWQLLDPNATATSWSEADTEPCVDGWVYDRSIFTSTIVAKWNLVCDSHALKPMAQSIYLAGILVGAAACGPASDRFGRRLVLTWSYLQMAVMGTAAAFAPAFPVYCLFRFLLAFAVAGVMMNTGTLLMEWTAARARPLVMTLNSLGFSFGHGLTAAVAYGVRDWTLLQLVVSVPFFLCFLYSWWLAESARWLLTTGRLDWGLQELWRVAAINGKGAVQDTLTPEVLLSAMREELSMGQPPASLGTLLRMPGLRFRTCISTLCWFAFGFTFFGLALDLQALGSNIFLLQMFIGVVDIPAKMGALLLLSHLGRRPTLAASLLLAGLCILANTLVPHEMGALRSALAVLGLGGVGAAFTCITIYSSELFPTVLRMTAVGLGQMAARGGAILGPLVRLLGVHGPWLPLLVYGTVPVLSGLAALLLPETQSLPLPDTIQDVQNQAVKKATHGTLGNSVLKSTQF
Description: inhibition of 14C-urate uptake in oocytes expressing hURAT1. Format: cell-based. Conditions: for IC50: hURAT1 IC50 (nM) ± SD, inhibition of 14C-urate uptake in oocytes expressing hURAT1; for fold weaker hURAT1 inhibitor than (1): IC50 compared with (1) (26 nM).

Like-named read-outs stand apart in the source and are kept apart here.

Turning to `CC(C)(C)c1cccc(C(C)(C)C)c1O` [2,6-di-tert-butyl-phenol], in series [1] (phenol pKa values ref 11), the pKa (usually the negative logarithm of the acid dissociation constant) was 10.2.

`CCc1oc2ccccc2c1C(=O)c1cc(Br)c(O)c(Br)c1` [(1), (3,5-dibromo-4-hydroxyphenyl)(2-ethylbenzofuran-3-yl)methanone, reference compound]: the AUC (as a rule, the area under the concentration-time curve, a measure of exposure) in series [2] amounted to 9070 ± 590 ng·h/mL. Further, in series [2] (parent compound, orbital sinus 0.5 mg/kg, blood, n = 3 ± SD), the T1/2 is 1.1 ± 0.1 h. Further, the microsomal CLint – broadly, a measure of how fast metabolising enzymes remove a compound, apart from limits set by blood flow – at 1 µM in series [3] came out at 51.3 ± 6.7 µL/min/mg.

Turning to `CCc1oc2ccc(OC)cc2c1C(=O)c1ccc(O)cc1` [(2), (2-ethyl-5-methoxybenzofuran-3-yl)(4-hydroxyphenyl)methanone], the microsomal CLint at 1 µM in series [3] is 412 ± 6.4 µL/min/mg.

In series [2], `CCc1oc2cc(OC)ccc2c1C(=O)c1cc(Br)c(O)c(Br)c1` [(3), (3,5-dibromo-4-hydroxyphenyl)(2-ethyl-6-methoxybenzofuran-3-yl)methanone] showed an AUC of 9600 ± 280 ng·h/mL. In series [3], this compound showed a microsomal CLint at 1 µM of 207 ± 4.2 µL/min/mg.

In turn, `CCc1oc2cc(OC)c(Br)cc2c1C(=O)c1cc(Br)c(O)c(Br)c1` [(4), (5-bromo-2-ethyl-6-methoxybenzofuran-3-yl)(3,5-dibromo-4-hydroxyphenyl)methanone] registered a microsomal CLint at 1 µM in series [3] of 23.5 ± 10.9 µL/min/mg.

In series [2], `CCc1oc2cc(O)ccc2c1C(=O)c1cc(Br)c(O)c(Br)c1` [(5), (3,5-dibromo-4-hydroxyphenyl)(2-ethyl-6-hydroxybenzofuran-3-yl)methanone] showed an AUC of 6160 ± 680 ng·h/mL. In addition, in series [3], the microsomal CLint at 1 µM amounted to 19.7 ± 2.8 µL/min/mg.

As for `CCc1oc2ccc(OC)cc2c1C(=O)c1cc(Br)c(O)c(Br)c1` [(6), (3,5-dibromo-4-hydroxyphenyl)(2-ethyl-5-methoxybenzofuran-3-yl)methanone], the AUC in series [2] is 2630 ± 250 ng·h/mL. In series [3], this compound returned a microsomal CLint at 1 µM of 44.9 ± 6.6 µL/min/mg.

With `CCc1oc2cc(Br)c(O)c(Br)c2c1C(=O)c1ccc(OC)cc1` [(7), (4,6-dibromo-2-ethyl-5-hydroxybenzofuran-3-yl)(4-methoxyphenyl)methanone], the microsomal CLint at 1 µM in series [3] stood at 286.8 ± 0.9 µL/min/mg.

`CCc1oc2ccc(O)cc2c1C(=O)c1cc(Br)c(O)c(Br)c1` [(8), (3,5-dibromo-4-hydroxyphenyl)(2-ethyl-5-hydroxybenzofuran-3-yl)methanone]: the AUC in series [2] was found to be 940 ± 80 ng·h/mL. In series [3], this compound had a microsomal CLint at 1 µM of 52 ± 0.1 µL/min/mg.

For the compound `CCc1oc2ccc(F)cc2c1C(=O)c1cc(Br)c(O)c(Br)c1` [(9), (3,5-dibromo-4-hydroxyphenyl)(2-ethyl-5-fluorobenzofuran-3-yl)methanone], in series [2], the AUC is 5260 ± 810 ng·h/mL. Further, in series [3], the microsomal CLint at 1 µM was 142 ± 5.5 µL/min/mg.

Consider `CCc1oc2ccccc2c1C(=O)c1ccc(O)c(F)c1` [(10), (2-ethylbenzofuran-3-yl)(3-fluoro-4-hydroxyphenyl)methanone], for which the IC50 (commonly the concentration that inhibits the measured activity by half) on hURAT1 (SLC22A12) is 2410 ± 90 nM.

For `CCc1oc2ccccc2c1C(=O)c1ccc(O)c(Cl)c1` [(11), (3-chloro-4-hydroxyphenyl)(2-ethylbenzofuran-3-yl)methanone], at hURAT1 (SLC22A12), it took 874 ± 56 nM to reach half-maximal inhibition (IC50).

`CCc1oc2ccccc2c1C(=O)c1ccc(O)c(Br)c1` [(12), (3-bromo-4-hydroxyphenyl)(2-ethylbenzofuran-3-yl)methanone] came in with an IC50 against hURAT1 (SLC22A12) of 814 ± 160 nM.

The compound `CCc1oc2ccccc2c1C(=O)c1ccc(O)c(I)c1` [(13), (2-ethylbenzofuran-3-yl)(4-hydroxy-3-iodophenyl)methanone] returned an IC50 on hURAT1 (SLC22A12) of 1490 ± 80 nM. Compared with the last compound, the IC50 is about 1.8-fold higher.

As to `CCc1oc2ccccc2c1C(=O)c1cc(C)c(O)c(C)c1` [(15), (2-ethylbenzofuran-3-yl)(4-hydroxy-3,5-dimethylphenyl)methanone], the midpoint of inhibition against hURAT1 (SLC22A12), the IC50, lay at 7540 ± 60 nM.

Consider `CCc1oc2ccccc2c1C(=O)c1cc(Br)c(OC)c(Br)c1` [(16), (3,5-dibromo-4-methoxyphenyl)(2-ethylbenzofuran-3-yl)methanone], for which, at hURAT1 (SLC22A12), the “fold weaker hURAT1 inhibitor than (1)” value was ~ 47 fold and the IC50 was determined as 1220 ± 110 nM.

`CCCCc1oc2ccccc2c1C(=O)c1ccc(O)cc1` [(17), (2-butylbenzofuran-3-yl)(4-hydroxyphenyl)methanone]: the “hURAT1 inhibition compared with corresponding ethyl analog” value at hURAT1 (SLC22A12) (butyl versus ethyl analog, ethyl analog ref 10) was “much weaker inhibitor than the corresponding ethyl analog”.

In the case of `CCCCc1oc2ccccc2c1C(=O)c1cc(Br)c(O)c(Br)c1` [(18), (2-butylbenzofuran-3-yl)(3,5-dibromo-4-hydroxyphenyl)methanone], the IC50 on hURAT1 (SLC22A12) turned out to be 1930 ± 90 nM.

With `CCc1oc2ccccc2c1C(=O)c1cc(Cl)c(O)c(Cl)c1` [(19), (3,5-dichloro-4-hydroxyphenyl)(2-ethylbenzofuran-3-yl)methanone], on hURAT1 (SLC22A12), the “fold weaker hURAT1 inhibitor than (1)” value is ~ 15 fold and 399 ± 56 nM corresponded to half-maximal inhibition (IC50).

In series [3], `CCc1cc2cc(OC)cc(C(=O)c3ccc(OC)cc3)c2o1` [(20), (2-ethyl-5-methoxybenzofuran-7-yl)(4-methoxyphenyl)methanone] had a microsomal CLint at 1 µM of 704 ± 12.7 µL/min/mg.

In series [3], `CCc1cc2cc(OC)cc(C(=O)c3cc(Br)c(O)c(Br)c3)c2o1` [(21), (3,5-dibromo-4-hydroxyphenyl)(2-ethyl-5-methoxybenzofuran-7-yl)methanone] came in with an intrinsic metabolic clearance (microsomal CLint) at 1 µM of 210 ± 5.9 µL/min/mg.

On to `CCc1cc2cc(O)cc(C(=O)c3cc(Br)c(O)c(Br)c3)c2o1` [(22), (3,5-dibromo-4-hydroxyphenyl)(2-ethyl-5-hydroxybenzofuran-7-yl)methanone], for which the microsomal CLint at 1 µM in series [3] came out at 454 ± 18.2 µL/min/mg.

Take `CCc1cc2c(C(=O)c3ccc(OC)cc3)cc(Br)c(O)c2o1` [(23), (6-bromo-2-ethyl-7-hydroxybenzofuran-4-yl)(4-methoxyphenyl)methanone]: in series [3], the microsomal CLint at 1 µM worked out at 121 ± 12.2 µL/min/mg. This microsomal CLint at 1 µM is about 3.8-fold lower than that of the compound before.

`CCc1cc2c(C(=O)c3cc(Br)c(O)c(Br)c3)c(OC)ccc2o1` [(24), (3,5-dibromo-4-hydroxyphenyl)(2-ethyl-5-methoxybenzofuran-4-yl)methanone] registered a microsomal CLint at 1 µM in series [3] of 323 ± 10.8 µL/min/mg.

On to `CCc1cc2c(C(=O)c3cc(Br)c(O)c(Br)c3)c(O)ccc2o1` [(25), (3,5-dibromo-4-hydroxyphenyl)(2-ethyl-5-hydroxybenzofuran-4-yl)methanone], for which the microsomal CLint at 1 µM in series [3] turned out to be 94.8 ± 5.1 µL/min/mg.

`CCc1cc2c(C(=O)c3cc(Br)c(O)c(Br)c3)cc(Br)c(O)c2o1` [(26), (6-bromo-2-ethyl-7-hydroxybenzofuran-4-yl)(3,5-dibromo-4-hydroxyphenyl)methanone] registered a microsomal CLint at 1 µM in series [3] of 34.3 ± 1.2 µL/min/mg.

With `O=c1[nH]c(=O)c2[nH]c(=O)[nH]c2[nH]1` [uric acid], the pKa in series [1] (in urine) is 5.4.

These data come from publication PMC3496402 (Drug Design, Development and Therapy, 2012).
